# Source: patent US6759424B2, “Imidazolidine derivatives, their preparation, their use, and pharmaceutical preparations comprising them” (Aventis Pharma Deutschland GmbH, priority 1997, dated 2004)
# Molecular target: T1, interaction between VCAM-1 and VLA-4 (Homo sapiens, UniProt P05556+P13612)
# T1 construct: supplied in their natural form as surface molecules on human U937 cells; host or cells: U937 cells carry VLA-4; The VCAM-1(1-3)-IgG partner was made by transient transfection of COS cells (ATCC CRL1651) and used as culture supernatant
# Experiment: U937/VCAM-1 cell adhesion test (adhesion of U937 cells to hVCAM-1(1-3)-IgG)
# Type: cell-based
# Settings: human U937 cells adhering to hVCAM-1(1-3)-IgG; concentration giving 50% inhibition of adhesion
# Text: The test method used for the activity of the compounds of the formula I on the interaction between VCAM-1 and VLA-4 is an assay which is specific for this interaction. The cellular binding components, i.e., the VLA-4 integrins, are supplied in their natural form as surface molecules on human U937 cells (ATCC CRL 1593), which belong to the leucocytes group. The specific binding components used are genetically engineered recombinant soluble fusion proteins, consisting of the extracytoplasmatic domain of human VCAM-1 and the constant region of a human immunoglobulin of the subclass IgG1.
# Assay for the Measurement of the Adhesion of U937 Cells (ATCC CRL 1593) to hVCAM-1 (1-3)-IgG
# 1. Preparation of Human VCAM-1(1-3)-IgG and Human CD4-IgG
# A genetic construct for the expression of the extracellular domain of human VCAM-1, associated with the genetic sequence of the heavy chain of human immunoglobulin IgG1 (hinge, CH2 and CH3 regions), from Dr. Brian Seed, Massachusetts General Hospital, Boston, USA was employed (cf. Damle and Aruffo, Proc. Natl. Acad. Sci. USA 1991, 88, 6403-6407). The soluble fusion protein hVCAM-1(1-3)-IgG contained the three amino-terminal extracellular immunoglobulin-like domains of human VCAM-1 (Damle and Aruffo, Proc. Natl. Acad. Sci. USA 1991, 88, 6403). CD4-IgG (Zettlmeissl et al., DNA and Cell Biology 1990, 9, 347) served as a fusion protein for negative controls. The recombinant proteins were expressed as soluble proteins after DEAE/dextran-mediated DNA transfection in COS cells (ATCC CRL1651) according to standard procedures (Ausubel et al., Current Protocols in Molecular Biology, John Wiley & Sons, Inc., 1994).
# 2. Assay for the Measurement of the Adhesion of U937 Cells to hVCAM-1(1-3)-IgG
# 2.1 96-well microtiter test plates (Nunc Maxisorb) were incubated at room temperature for 1 hour with 100 μl/well of a goat-anti-human IgG antibody solution (10 μg/ml in 50 mM tris, pH 9.5). After removal of the antibody solution, washing was carried out once with PBS.
# 2.2 150 μl/well of a blocking buffer (1% BSA in PBS) was incubated on the plates at room temperature for 0.5 hour. After removal of the blocking buffer, washing was carried out once with PBS.
# 2.3 100 μl per well of a cell culture supernatant of transfected COS cells were incubated on the plates at room temperature for 1.5 hours. The COS cells were transfected with a plasmid which codes for the three N-terminal immunoglobulin-like domains of VCAM-1, coupled to the Fc part of human IgG, (hVCAM-1 (1-3)-IgG). The content of hVCAM-1 (1-3)-IgG was about 0.5-1 μg/ml. After removal of the culture supernatant washing was carried out once with PBS.
# 2.4 The plates were incubated at room temperature for 20 minutes with 100 μl/well of Fc receptor blocking buffer (1 mg/ml of γ-globulin, 100 mM NaCl, 100 μM MgCl2, 100 μM MnCl2, 100 μM CaCl2, 1 mg/ml of BSA in 50 mM HEPES, pH 7.5). After removal of the Fc receptor blocking buffer washing was carried out once with PBS.
# 2.5 20 μl of binding buffer (100 mM NaCl, 100 μM MgCl2, 100 μM MnCl2, 100 μM CaCl2, 1 mg/ml of BSA in 50 mM HEPES, pH 7.5) were initially introduced, and the substances to be tested were added in 10 μl of binding buffer and incubated for 20 minutes. The controls used were antibodies against VCAM-1 (BBT, No. BBA6) and against VLA-4 (Immunotech, No. 0764). […]
# T1 sequence (P13612 34-1032): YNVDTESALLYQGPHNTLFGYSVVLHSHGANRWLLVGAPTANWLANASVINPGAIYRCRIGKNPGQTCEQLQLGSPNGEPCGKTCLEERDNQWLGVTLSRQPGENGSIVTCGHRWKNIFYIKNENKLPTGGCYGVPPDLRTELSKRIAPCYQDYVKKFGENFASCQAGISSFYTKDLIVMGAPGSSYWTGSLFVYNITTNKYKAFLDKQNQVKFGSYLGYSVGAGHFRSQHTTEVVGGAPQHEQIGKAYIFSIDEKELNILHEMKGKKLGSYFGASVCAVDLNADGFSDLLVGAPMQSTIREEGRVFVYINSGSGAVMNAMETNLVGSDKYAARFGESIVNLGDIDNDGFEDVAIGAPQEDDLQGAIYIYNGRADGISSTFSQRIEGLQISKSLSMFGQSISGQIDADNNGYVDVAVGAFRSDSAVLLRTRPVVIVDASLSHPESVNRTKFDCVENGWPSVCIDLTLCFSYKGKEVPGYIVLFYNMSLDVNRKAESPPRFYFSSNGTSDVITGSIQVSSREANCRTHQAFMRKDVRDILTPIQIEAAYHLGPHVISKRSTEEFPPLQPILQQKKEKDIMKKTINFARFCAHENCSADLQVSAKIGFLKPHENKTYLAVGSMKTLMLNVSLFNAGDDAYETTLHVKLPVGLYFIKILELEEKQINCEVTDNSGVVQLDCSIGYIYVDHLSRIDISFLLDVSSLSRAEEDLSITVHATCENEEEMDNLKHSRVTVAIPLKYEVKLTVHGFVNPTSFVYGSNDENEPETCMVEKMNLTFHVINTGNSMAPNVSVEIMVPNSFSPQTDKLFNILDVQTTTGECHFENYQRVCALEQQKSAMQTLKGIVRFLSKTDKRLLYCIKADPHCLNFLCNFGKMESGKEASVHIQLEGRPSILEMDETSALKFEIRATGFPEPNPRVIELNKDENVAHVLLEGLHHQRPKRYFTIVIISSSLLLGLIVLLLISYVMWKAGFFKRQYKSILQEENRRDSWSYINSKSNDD
# T1 sequence (P05556 21-798): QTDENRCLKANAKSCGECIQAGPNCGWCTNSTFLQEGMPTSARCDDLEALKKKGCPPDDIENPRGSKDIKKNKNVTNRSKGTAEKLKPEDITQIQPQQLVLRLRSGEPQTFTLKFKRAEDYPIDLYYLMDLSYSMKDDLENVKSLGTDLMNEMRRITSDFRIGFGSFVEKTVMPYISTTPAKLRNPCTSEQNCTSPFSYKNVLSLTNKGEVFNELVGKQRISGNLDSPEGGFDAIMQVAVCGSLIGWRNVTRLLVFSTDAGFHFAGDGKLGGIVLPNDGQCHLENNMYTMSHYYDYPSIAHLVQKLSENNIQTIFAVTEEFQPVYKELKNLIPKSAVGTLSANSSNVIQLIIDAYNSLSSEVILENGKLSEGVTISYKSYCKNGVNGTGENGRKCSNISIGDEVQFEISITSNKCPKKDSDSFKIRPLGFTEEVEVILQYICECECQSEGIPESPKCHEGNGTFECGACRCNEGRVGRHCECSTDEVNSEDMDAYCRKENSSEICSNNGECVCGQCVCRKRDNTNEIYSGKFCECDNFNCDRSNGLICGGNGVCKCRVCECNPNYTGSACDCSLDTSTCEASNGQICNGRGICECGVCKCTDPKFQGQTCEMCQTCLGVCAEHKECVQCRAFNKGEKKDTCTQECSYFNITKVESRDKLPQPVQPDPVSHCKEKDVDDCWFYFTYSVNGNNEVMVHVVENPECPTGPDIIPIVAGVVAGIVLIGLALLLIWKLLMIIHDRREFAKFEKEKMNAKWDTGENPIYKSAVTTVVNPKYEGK
row,Structure (SMILES),IC50 [µM]
1,"CC(C)C(C(=O)NC[C@H](NC(=O)OCC12CC3CC(CC(C3)C1)C2)C(=O)O)N1C(=O)N(Cc2ccccc2)C(C)(c2ccccc2)C1=O (stereo partly drawn) [Example 4, (S)-3-((R,S)-2-((R,S)-4-Phenyl-3-benzyl-4-methyl-2,5-dioxoimidazolidin-1-yl)-2-isopropylacetylamino)-2-(1-adamantylmethyloxycarbonylamino)-propionic acid]",45
2,"CC1(c2ccccc2)C(=O)N(CC(=O)N[C@@H](CC(=O)O)C(=O)N[C@H](C(=O)O)c2ccccc2)C(=O)N1Cc1ccccc1 (stereo partly drawn) [Example 7, ((R,S)-4-Phenyl-3-benzyl-4-methyl-2,5-dioxoimidazolidin-1-yl)acetyl-L-aspartyl-L-phenylglycine]",8
3,"C[C@]1(c2ccc(CO)cc2)C(=O)N(CC(=O)N[C@@H](CC(=O)O)C(=O)N[C@H](C(=O)O)c2ccccc2)C(=O)N1Cc1ccccc1 [Example 8, ((S)-4-(4-Hydroxymethylphenyl)-3-benzyl-4-methyl-2,5-dioxoimidazolidin-1-yl)acetyl-L-aspartyl-L-phenylglycine]",4.5

# Continued, values first:
row,IC50 [µM],Structure (SMILES)
1,4,"C[C@]1(c2ccc(CO)cc2)C(=O)N(CC(=O)NC[C@H](NC(=O)OCC23CC4CC(CC(C4)C2)C3)C(=O)O)C(=O)N1Cc1ccccc1 [Example 9, (S)-3-(((S)-4-(4-Hydroxymethylphenyl)-3-benzyl-4-methyl-2,5-dioxoimidazolidin-1-yl)acetylamino)-2-(1-adamantylmethyloxycarbonylamino)propionic acid]"
2,9.5,"CC1(c2ccc(O)cc2)C(=O)N(CC(=O)N[C@@H](CC(=O)O)C(=O)N[C@H](C(=O)O)c2ccccc2)C(=O)N1Cc1ccccc1 (stereo partly drawn) [Example 10, ((R,S)-4-(4-Hydroxyphenyl)-3-benzyl-4-methyl-2,5-dioxoimidazolidin-1-yl)acetyl-L-aspartyl-L-phenylglycine]"
